This note sets out measurements from patent publication US9546138B2, “Pyridone derivatives and uses thereof in the treatment of tuberculosis” (priority 2012, dated 2017).

SMILES strings stand for the structures. In brackets after ≈: the same amount, converted by molar mass. Read-outs that look alike come from different tables or passages of the source. A value given as a limit tells only on which side of the number the result lay.

Holding throughout (assay): microbe, parasite or virus in culture
Holding throughout (type): cell-based

The test system of experiment [1] is Mycobacterium tuberculosis H37Rv (ATCC #27294).
The test system of another experiment is BCG WT (WT inhA). Conditions: Mycobacterium tuberculosis variant bovis BCG, read-out: Compound MIC50.
A further experiment relates to M. smeg WT (WT inhA). The note with it: Mycolicibacterium smegmatis, strain M. smeg WT, read-out: Compound MIC50.

Regarding `CCc1cc(C(N)=S)ccn1` [Ethionamide, reference compound], the figures for the MIC50 (in experiment [1] (read-out: Compound MIC50); with BCG WT (WT inhA) (BCG); in the experiment with M. smeg WT (WT inhA)) were 1.66 µM (≈ 0.276 µg/mL), 17 µM (≈ 2.83 µg/mL) and more than 20 µM, respectively. In the case of `NNC(=O)c1ccncc1` [Isoniazid, isoniazid, reference compound], the MIC50 in experiment [1] (read-out: Compound MIC50) was 0.25 µM (≈ 0.0343 µg/mL); in the experiment with BCG WT (WT inhA) (strain BCG WT, WT inhA), 0.3 µM (≈ 0.0411 µg/mL); in the experiment with M. smeg WT (WT inhA) it was more than 20 µM. As for `O=c1[nH]c(Cc2ccccc2)cc(O)c1-c1ccccc1` [PD1, 6-benzyl-4-hydroxy-3-phenylpyridin-2(1H)-one], the MIC50 in experiment [1] (120 h, read-out: MTB MIC50) is 1.4 µM (≈ 0.388 µg/mL). On to `O=c1[nH]c(CC2CCCCC2)cc(O)c1-c1ccccc1` [PD2, 6-(cyclohexylmethyl)-4-hydroxy-3-phenylpyridin-2(1H)-one], for which the MIC50 came to 0.22 µM (≈ 0.0623 µg/mL) in experiment [1] (120 h, read-out: MTB MIC50) and 0.16 µM (≈ 0.0453 µg/mL) in experiment [1] (read-out: Compound MIC50). As to `O=c1[nH]c(CC2CC2)cc(O)c1-c1ccccc1` [PD3, 6-(cyclopropylmethyl)-4-hydroxy-3-phenylpyridin-2(1H)-one], in experiment [1] (120 h, read-out: MTB MIC50), the MIC50 stood at 4.53 µM (≈ 1.09 µg/mL). The same measure, in the same setting: with `O=c1[nH]c(CC2CCCC2)cc(O)c1-c1ccccc1` [PD4, 6-(cyclopentylmethyl)-4-hydroxy-3-phenylpyridin-2(1H)-one] the figure was 0.92 µM (≈ 0.248 µg/mL); with `O=c1[nH]c(CC2CCC2)cc(O)c1-c1ccccc1` [PD5, 6-(cyclobutylmethyl)-4-hydroxy-3-phenylpyridin-2(1H)-one], 1.19 µM (≈ 0.304 µg/mL). Still for that read-out and setting: with `O=c1[nH]c(CC2CCOCC2)cc(O)c1-c1ccccc1` [PD6, 4-hydroxy-3-phenyl-6-((tetrahydro-2H-pyran-4-yl)methyl)pyridin-2(1H)-one] the figure was 10.1 µM (≈ 2.88 µg/mL).

As to `CC(C)CCc1cc(O)c(-c2ccccc2)c(=O)[nH]1` [PD7, 4-hydroxy-6-isopentyl-3-phenylpyridin-2(1H)-one], the MIC50 in experiment [1] (120 h, read-out: MTB MIC50) stood at 1.51 µM (≈ 0.389 µg/mL). Still for that read-out and setting: with `CC(C)(C)Cc1cc(O)c(-c2ccccc2)c(=O)[nH]1` [PD8, 4-hydroxy-6-neopentyl-3-phenylpyridin-2(1H)-one] the figure was 10 µM (≈ 2.58 µg/mL); with `O=c1[nH]c(CC2CCC(F)(F)CC2)cc(O)c1-c1ccccc1` [PD9, 6-((4,4-difluorocyclohexyl)methyl)-4-hydroxy-3-phenylpyridin-2(1H)-one], 1.32 µM (≈ 0.422 µg/mL). In the case of `CC1(C)CCC(Cc2cc(O)c(-c3ccccc3)c(=O)[nH]2)CC1` [PD10, 6-((4,4-dimethylcyclohexyl)methyl)-4-hydroxy-3-phenylpyridin-2(1H)-one], the MIC50 in experiment [1] (120 h, read-out: MTB MIC50) is 0.02 µM (≈ 0.00623 µg/mL); in experiment [1] (read-out: Compound MIC50), 0.05 µM (≈ 0.0156 µg/mL); in the experiment on BCG WT (WT inhA) (strain BCG WT, WT inhA), 0.02 µM (≈ 0.00623 µg/mL); in the experiment with M. smeg WT (WT inhA), 0.4 µM (≈ 0.125 µg/mL). For the molecule `O=c1[nH]c(Cc2ccncc2)cc(O)c1-c1ccccc1` [PD11, 4-hydroxy-3-phenyl-6-(pyridin-4-ylmethyl)pyridin-2(1H)-one], the MIC50 in experiment [1] (120 h, read-out: MTB MIC50) turned out to be 6.08 µM (≈ 1.69 µg/mL). As for `CC(C)Cc1cc(O)c(-c2ccccc2)c(=O)[nH]1` [PD12, 4-hydroxy-6-isobutyl-3-phenylpyridin-2(1H)-one], the MIC50 in experiment [1] (120 h, read-out: MTB MIC50) is 1.9 µM (≈ 0.462 µg/mL); in experiment [1] (read-out: Compound MIC50), 1.54 µM (≈ 0.375 µg/mL); with BCG WT (WT inhA) (strain BCG WT, WT inhA) it was 0.37 µM (≈ 0.09 µg/mL); in the experiment with M. smeg WT (WT inhA), 0.67 µM (≈ 0.163 µg/mL). For `CC(C)Cc1[nH]c(=O)c(-c2ccccc2)c(O)c1C(N)=O` [PD13, 4-hydroxy-2-isobutyl-6-oxo-5-phenyl-1,6-dihydropyridine-3-carboxamide], the MIC50 in experiment [1] (120 h, read-out: MTB MIC50) turned out to be 18.7 µM (≈ 5.35 µg/mL).

Turning to `CC(C)Cc1cc(O)c(-c2cccc(Cl)c2)c(=O)[nH]1` [PD14, 3-(3-chlorophenyl)-4-hydroxy-6-isobutylpyridin-2(1H)-one], the MIC50 in experiment [1] (120 h, read-out: MTB MIC50) came to 2.67 µM (≈ 0.742 µg/mL). The same measure, in the same setting: with `CC(C)Cc1cc(O)c(-c2ccc(F)cc2)c(=O)[nH]1` [PD15, 3-(4-fluorophenyl)-4-hydroxy-6-isobutylpyridin-2(1H)-one] the figure was 6.75 µM (≈ 1.76 µg/mL); with `CC(C)Cc1cc(O)c(-c2ccc(F)cc2F)c(=O)[nH]1` [PD17, 3-(2,4-difluorophenyl)-4-hydroxy-6-isobutylpyridin-2(1H)-one], 9.18 µM (≈ 2.56 µg/mL). Same read-out and setting: with `CC(C)Cc1cc(O)c(-c2cccc(F)c2)c(=O)[nH]1` [PD18, 3-(3-fluorophenyl)-4-hydroxy-6-isobutylpyridin-2(1H)-one] the figure was 2.69 µM (≈ 0.703 µg/mL); with `CC(C)Cc1cc(O)c(-c2ccccc2)c(=O)n1C` [PD19, 4-hydroxy-6-isobutyl-1-methyl-3-phenylpyridin-2(1H)-one], 8.14 µM (≈ 2.09 µg/mL).

`CC1(C)CCC(Cc2cc(OCOP(=O)(O)O)c(-c3ccccc3)c(=O)[nH]2)CC1` [PD21, ((6-((4,4-dimethylcyclohexyl)methyl)-2-oxo-3-phenyl-1,2-dihydropyridin-4-yl)oxy)methyl dihydrogen phosphate]: in experiment [1] (120 h, read-out: MTB MIC50), the MIC50 stood at 3.99 µM. The same measure, in the same setting: with `CC1(C)CCC(Cc2cc(OP(=O)(O)O)c(-c3ccccc3)c(=O)[nH]2)CC1` [PD22, 6-((4,4-dimethylcyclohexyl)methyl)-2-oxo-3-phenyl-1,2-dihydropyridin-4-yl dihydrogen phosphate] the figure was 1.72 µM.
